Patent publication US20260159474A1, “Aminoindane Compounds and Compositions and Methods of Their Therapeutic Use” (Solvonis Therapeutics Ireland Holdings Limited, priority 2021, published 2026)

Tested on: extracellular noradrenaline (NE) in the nucleus accumbens (NAcc)
Assay: In vivo microdialysis in rat nucleus accumbens, norepinephrine
Parameters: species or system Sprague Dawley rats
Settings: 7 mg/kg I.P.; for time of peak NE level / peak NE level: rat NAcc microdialysis; for peak NE level: baseline = 100%; for Norepinephrine (NE) level (% from baseline): rat NAcc
Procedure: Methods and Procedure: This study was conducted in compliance with previously described procedures to assure data integrity, adherence to GLP regulations, and standard preclinical study and surgery procedures. The in vivo microdialysis technique was applied to measure the over-time variations of DA, 5-HT, and NE extracellular (EC) concentrations in conscious, freely-moving Sprague Dawley rats. Levels of the neurotransmitters in microdialysis samples were determined using LC-MS/MS analysis. The experiment was also conducted with MDMA for comparative purposes.
As it relates to cannula implantation, the rats were anesthetized with isoflurane 4% in oxygen (2-2.5 L/min), then the isoflurane concentration 2-2.5% was maintained via a nose cone adapted to the stereotaxic apparatus. The rats were treated with meloxicam (0.2 mg/kg, subcutaneously, sc; Meloxidolor) and amoxicilline (150 mg/kg, sc, Betamox LA). The skull was then shaved and disinfected. Rats were then placed in a stereotaxic apparatus for small animals. One vertical guide cannula was inserted through a 1 mm hole drilled on the exposed skull. Coordinates, with respect to the bregma to target specific brain areas, followed indications from stereotaxic atlas of the rat brain. Specifically a guide cannula (MAB 4.12.IC, Agn Tho's AB, Lidinga, Sweden) was inserted in the NAcc (anteroposterior+1.6; lateral −1.6; dorsoventral −6.0). The guide cannula was then secured with dental cement and 2-4 screws. At the end of the surgery the animal was isolated in a single cage during recovery, for a period of at least one week, during which animal health conditions were checked twice daily and the weight recorded twice a week. Animals continued to be housed singly throughout the experiment. One day before the experiment the cannula stylet was removed and a microdialysis probe with a dialyzing length of 2 mm (MAB 4.12.2 Cu, Agn Tho's AB, Lidingo, Sweden) was inserted. Probes can be re-used 2 times for 2 experimental sessions after appropriate cleaning with fresh milliQ water.
Post-surgery, the rats were maintained in a heating chamber prior to waking up in order to avoid hypothermia that could be caused by anaesthesia. 5 mL of physiologic solution was subcutaneously administered immediately after surgery, and once/day for 2-3 days, if signs of dehydration are noticed. Meloxicam (Meloxidolor) 0.2 mg/kg was again administered subcutaneously the day after surgery as well as after 48 h after surgery together with Amoxicilline Long Acting (Betamox LA) 150 mg/kg. Health status and body weight was checked every day during the first week.
The animals were treated with the therapeutic compounds, and MDMA, or their vehicle (saline) according to a Latin square design over 5 separate experimental days (one day/week). The treatments were administered in a volume of 1 mL/kg intraperitoneally.
On the day of the experiment, each animal was taken into the laboratory in its home cage. Inlet tubing of the probe was attached to a dual quartz-lined two channel liquid swivel mounted on a low mass spring counterbalance arm which, in turn, was connected to a gas-tight syringe on a microinfusion pump. […] An equilibration period of about two hours of perfusion was allowed before collecting samples. Following the equilibration period, 4 basal samples were collected for each experimental animal followed by further 10 post-treatment samples. Samples were collected every 20 minutes (up to 3 hours and 20 minutes post-treatment) by means of a refrigerated auto-sampler (Univentor 820 Microsampler, AgnTho's, Sweden) maintained at +8 “C. At the end of all experimental sessions, 2 μL of 0.1% methylene blue solution was injected through the microdialysis probe, animals were euthanized, and their brains removed to confirm the correct probe-position.
As mentioned, the concentration of DA, 5-HT and NE in CSF samples were determined using an optimized method based on LC-MS/MS analysis. […]

With `COC(=O)c1ccc2c(c1)CC(N)C2` (stereo not drawn) [CMP-405, 2-aminoindane-5-methylcarboxylate] as the compound, how does the “time of peak NE level” value read?
The value was 60 min.

What about the “peak NE level” value of the same compound?
The value was 188%.

And the “Norepinephrine (NE) level (% from baseline)” value (0 min (basal sample))?
Its value is 101%.

And the “Norepinephrine (NE) level (% from baseline)” value (20 min post-admin)?
Its value is 106%.

And the “Norepinephrine (NE) level (% from baseline)” value (40 min post-admin)?
Its value is 167%.

What about the “Norepinephrine (NE) level (% from baseline)” value (60 min post-admin) of the same compound?
The value was 188%.

What about the “Norepinephrine (NE) level (% from baseline)” value (80 min post-admin) of the same compound?
The value was 147%.

And the “Norepinephrine (NE) level (% from baseline)” value (100 min post-admin)?
Its value is 136%.

What about the “Norepinephrine (NE) level (% from baseline)” value (120 min post-admin) of the same compound?
The value was 125%.

What about the “Norepinephrine (NE) level (% from baseline)” value (140 min post-admin) of the same compound?
The value was 107%.

And the “Norepinephrine (NE) level (% from baseline)” value (160 min post-admin)?
Its value is 122%.

What about the “Norepinephrine (NE) level (% from baseline)” value (180 min post-admin) of the same compound?
The value was 105%.

What about the “Norepinephrine (NE) level (% from baseline)” value (200 min post-admin) of the same compound?
Its value is 106%.

And the “Norepinephrine (NE) level (% from baseline)” value (−20 min (basal sample))?
Its value is 99%.

How did the “time of peak NE level” value turn out when `CNC(C)Cc1ccc2c(c1)OCO2` (stereo not drawn) [MDMA] was run?
The value was 40 min.

And the “peak NE level” value?
Its value is 473%.

And the “Norepinephrine (NE) level (% from baseline)” value (0 min (basal sample))?
Its value is 100%.

And the “Norepinephrine (NE) level (% from baseline)” value (20 min post-admin)?
The value was 113%.

What about the “Norepinephrine (NE) level (% from baseline)” value (40 min post-admin) of the same compound?
Its value is 473%.

And the “Norepinephrine (NE) level (% from baseline)” value (60 min post-admin)?
Its value is 457%.

And the “Norepinephrine (NE) level (% from baseline)” value (80 min post-admin)?
The value was 375%.

What about the “Norepinephrine (NE) level (% from baseline)” value (100 min post-admin) of the same compound?
Its value is 348%.

What about the “Norepinephrine (NE) level (% from baseline)” value (120 min post-admin) of the same compound?
Its value is 350%.

And the “Norepinephrine (NE) level (% from baseline)” value (140 min post-admin)?
The value was 320%.

What about the “Norepinephrine (NE) level (% from baseline)” value (160 min post-admin) of the same compound?
The value was 295%.

What about the “Norepinephrine (NE) level (% from baseline)” value (180 min post-admin) of the same compound?
The value was 275%.

And the “Norepinephrine (NE) level (% from baseline)” value (200 min post-admin)?
The value was 255%.

And the “Norepinephrine (NE) level (% from baseline)” value (−20 min (basal sample))?
Its value is 100%.

Which results are given for `COc1ccc2c(c1)CC(N)C2` (stereo not drawn) [MEAI, 5-methoxy-2-aminoindane]?
time of peak NE level: 40 min; peak NE level: 366%; Norepinephrine (NE) level (% from baseline) (0 min (basal sample)): 97%; Norepinephrine (NE) level (% from baseline) (20 min post-admin): 132%; Norepinephrine (NE) level (% from baseline) (40 min post-admin): 366%; Norepinephrine (NE) level (% from baseline) (60 min post-admin): 295%; Norepinephrine (NE) level (% from baseline) (80 min post-admin): 208%; Norepinephrine (NE) level (% from baseline) (100 min post-admin): 194%; Norepinephrine (NE) level (% from baseline) (120 min post-admin): 187%; Norepinephrine (NE) level (% from baseline) (140 min post-admin): 167%; Norepinephrine (NE) level (% from baseline) (160 min post-admin): 140%; Norepinephrine (NE) level (% from baseline) (180 min post-admin): 149%; Norepinephrine (NE) level (% from baseline) (200 min post-admin): 133%; Norepinephrine (NE) level (% from baseline) (−20 min (basal sample)): 103%
